ChEMBL document CHEMBL1201862, “PubChem BioAssay data set” (2004)
Where “and” joins values, the source holds several entries; their conditions need not be identical. Identical values can stand only once.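 Five compound concentrations were applied to cells in 96-well plates for 48 hours; endpoints were derived by simple linear interpolation of the resulting dose-response curve. GI50 = concentration required for 50% inhibition of growth.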 Calls of active or inactive are those of the source. Cut-off read from the data, not from the text of the source: active = GI50 up to about 1.1 µM and inactive = higher.

Key:
Assay in all cases: NCI tumour cell line growth inhibition, 48 h
SF-295 = test system: SF-295
LOX IMVI = test system: LOX IMVI
MDA-MB-231 = test system: MDA-MB-231
KM12 = test system: KM12
T47D = test system: T47D
NCI-H226 = test system: NCI-H226
MCF7 = test system: MCF7
TK-10 = test system: TK-10
SF-268 = test system: SF-268
M14 = test system: M14
PC-3 = test system: PC-3
OVCAR-4 = test system: OVCAR-4
BT-549 = test system: BT-549
RPMI-8226 = test system: RPMI-8226
SK-OV-3 = test system: SK-OV-3
CAKI-1 = test system: CAKI-1
COLO 205 = test system: COLO 205
RXF 393 = test system: RXF 393
SF-539 = test system: SF-539
HL-60 = test system: HL-60

Measured: GI50

CC(C(=O)ON1C(=O)CCC1=O)c1ccc(C(=O)c2ccccc2)s1 (stereo not given)
inactive: SF-295 > 100 µM | LOX IMVI > 100 µM | MDA-MB-231 > 100 µM | KM12 > 100 µM | T47D > 100 µM | NCI-H226 > 100 µM | MCF7 > 100 µM | TK-10 > 100 µM | SF-268 > 100 µM | M14 > 100 µM | PC-3 > 100 µM | OVCAR-4 > 100 µM | BT-549 > 100 µM | RPMI-8226 > 100 µM | SK-OV-3 > 100 µM | CAKI-1 > 100 µM | COLO 205 > 100 µM | RXF 393 > 100 µM

COc1cc(-c2oc3c(OC)c(OC)cc(O)c3c(=O)c2OC)ccc1O [TERNATIN]
inactive: SF-539 6.18 µM and 7.5 µM | MDA-MB-231 15.2 µM | T47D 8.32 µM | MCF7 21.1 µM | TK-10 4.84 µM and 8.69 µM | HL-60 1.24 µM | PC-3 20.4 µM | BT-549 5.01 µM | SK-OV-3 1.17 µM and 2.19 µM | CAKI-1 7 µM | COLO 205 > 100 µM | RXF 393 6.18 µM and 3.87 µM

Cc1[nH]c2ccccc2c1-c1cc(-c2cc(-c3c(C)[nH]c4ccccc34)nc(N)n2)nc(N)n1
inactive: SF-539 > 100 µM | SF-295 > 100 µM | LOX IMVI > 100 µM | MDA-MB-231 > 100 µM | KM12 > 100 µM | T47D > 100 µM | NCI-H226 37.2 µM | MCF7 > 100 µM | TK-10 > 100 µM | HL-60 > 100 µM | SF-268 > 100 µM | M14 > 100 µM | PC-3 > 100 µM | OVCAR-4 > 100 µM | BT-549 > 100 µM | RPMI-8226 > 100 µM | SK-OV-3 > 100 µM | CAKI-1 > 100 µM | COLO 205 > 100 µM

CN(C)/C=N/C1CCC(C(C)(C)C)CC1 (stereo not given)
inactive: SF-539 17.5 µM | SF-295 17.4 µM | LOX IMVI 15.5 µM | MDA-MB-231 13.6 µM | T47D 16.4 µM | NCI-H226 19.3 µM | MCF7 27.9 µM | TK-10 21.8 µM | HL-60 15.3 µM | SF-268 28.4 µM | M14 17.6 µM | PC-3 15.1 µM | OVCAR-4 18 µM | BT-549 18.5 µM | SK-OV-3 21.3 µM | CAKI-1 18.9 µM | COLO 205 17.3 µM | RXF 393 19.2 µM

CC[C@]1(Cc2ccc(OC)c(OC)c2)C=[N+]([O-])O[C@H](OC2CCCC2(c2ccccc2)c2ccccc2)[C@@H]1OC(=O)C(C)(C)C (stereo not given in full)
inactive: SF-295 3.47 µM | LOX IMVI 1.95 µM | MDA-MB-231 5.56 µM | KM12 2.54 µM | T47D 2.49 µM | NCI-H226 3.27 µM | MCF7 2.74 µM | TK-10 3.23 µM | HL-60 2.18 µM | SF-268 3.15 µM | M14 3.51 µM | PC-3 3.69 µM | OVCAR-4 3.27 µM | BT-549 4.38 µM | SK-OV-3 15.2 µM | CAKI-1 4.19 µM | COLO 205 2.6 µM | RXF 393 1.63 µM

C1CSCCSCCS1
inactive: SF-539 > 100 µM | SF-295 > 100 µM | LOX IMVI > 100 µM | MDA-MB-231 > 100 µM | KM12 > 100 µM | T47D > 100 µM | MCF7 > 100 µM | TK-10 > 100 µM | HL-60 > 100 µM | SF-268 > 100 µM | M14 > 100 µM | PC-3 > 100 µM | OVCAR-4 > 100 µM | BT-549 > 100 µM | RPMI-8226 > 100 µM | SK-OV-3 > 100 µM | COLO 205 > 100 µM | RXF 393 > 100 µM

CCOC(=O)CCCNC(=O)CCCCC(=O)N(C)C
inactive: SF-539 > 100 µM | SF-295 > 100 µM | LOX IMVI > 100 µM | MDA-MB-231 > 100 µM | KM12 > 100 µM | T47D > 100 µM | NCI-H226 > 100 µM | MCF7 > 100 µM | TK-10 > 100 µM | HL-60 > 100 µM | SF-268 > 100 µM | M14 > 100 µM | PC-3 > 100 µM | BT-549 > 100 µM | RPMI-8226 > 100 µM | SK-OV-3 > 100 µM | CAKI-1 > 100 µM | COLO 205 > 100 µM

CC(C)C(C)C(O)C(O)C(C)C1CCC2C3COC(=O)C4CC(O)C(O)CC4(C)C3CCC12C (stereo not given)
inactive: SF-539 > 100 µM | SF-295 78.5 µM | LOX IMVI > 100 µM | MDA-MB-231 > 100 µM | KM12 50.2 µM | T47D 40.9 µM | NCI-H226 23.2 µM | MCF7 56.4 µM | TK-10 > 100 µM | HL-60 > 10 µM | SF-268 79.3 µM | M14 > 100 µM | PC-3 46.9 µM | OVCAR-4 59 µM | BT-549 88.3 µM | SK-OV-3 > 100 µM | CAKI-1 11.7 µM | COLO 205 94 µM | RXF 393 20.2 µM
